Results on two compounds are retold here after PubChem BioAssay AID190 (DTP/NCI, 2004).

Molecules are shown by their SMILES. “And” between values parts separate entries of the source, which are not always exact repeats. Equal values may be shown once. Inconclusive results and toxic doses are left out.

The subject of this experiment is AKR/Lw mice, AKR lymphoma ip, median survival T/C. The experiment in a line: NCI In Vivo Anticancer Drug Screen. Data for tumor model Lymphoma AKR (Transplanted) (intraperitoneal) in AKR/Lw mice. The conditions noted are these: endpoint: median survival time, higher = longer survival. As for the experimental part:
The antitumor activity of compounds was measured in mice bearing transplantable tumors. Survival or tumor size were measured and the results are expressed as the measurement made in the treated group (T) divided by the measurement made in the vehicle treated control group (C). The tumor model used in this assay is Lymphoma AKR (Transplanted) (intraperitoneal) in AKR/Lw mice

Turning to `CC[C@](O)(C(=O)O)c1cc2n(c(=O)c1CO)Cc1cc3ccccc3nc1-2`, the T/C is 94 % of control (dose: 0.02 mg/kg/injection, schedule: Q01DX009 (ip), vehicle: saline); 105 % of control (dose: 0.05 mg/kg/injection, schedule: Q01DX009 (ip), vehicle: saline); 106 % of control (dose: 0.06 mg/kg/injection, schedule: Q01DX009 (ip), vehicle: saline); 100 % of control and 103 % of control (dose: 0.1 mg/kg/injection, schedule: Q01DX009 (ip), vehicle: saline); 100 % of control and 114 % of control (dose: 0.12 mg/kg/injection, schedule: Q01DX009 (ip), vehicle: saline); 106 % of control (dose: 0.15 mg/kg/injection, schedule: Q01DX009 (ip), vehicle: saline). Also, the T/C was 106 % of control (dose: 0.35 mg/kg/injection, schedule: Q01DX009 (ip), vehicle: saline); 101 % of control (dose: 0.37 mg/kg/injection, schedule: Q01DX009 (ip), vehicle: saline); 118 % of control (dose: 0.4 mg/kg/injection, schedule: Q01DX009 (ip), vehicle: saline); 96 % of control (dose: 0.6 mg/kg/injection, schedule: Q01DX009 (ip), vehicle: saline); 88 % of control (dose: 0.6 mg/kg/injection, schedule: Q04DX003 (ip), vehicle: saline); 117 % of control (dose: 0.75 mg/kg/injection, schedule: Q01DX009 (ip), vehicle: saline). The T/C reads like this: (dose: 1.2 mg/kg/injection, schedule: Q04DX003 (ip), vehicle: saline) 97 % of control and 104 % of control; (dose: 1.25 mg/kg/injection, schedule: Q01DX001 (ip), vehicle: saline) 121 % of control; (dose: 2.5 mg/kg/injection, schedule: Q01DX001 (ip), vehicle: saline) 107 % of control; (dose: 2.5 mg/kg/injection, schedule: Q01DX009 (ip), vehicle: saline) 88 % of control and 113 % of control; (dose: 3.7 mg/kg/injection, schedule: Q04DX003 (ip), vehicle: saline) 106 % of control; (dose: 5.0 mg/kg/injection, schedule: Q01DX001 (ip), vehicle: saline) 102 % of control and 114 % of control. In addition, the T/C is, setting by setting: (dose: 7.5 mg/kg/injection, schedule: Q04DX003 (ip), vehicle: saline) 112 % of control; (dose: 12.5 mg/kg/injection, schedule: Q01DX001 (ip), vehicle: saline) 120 % of control; (dose: 15.0 mg/kg/injection, schedule: Q04DX003 (ip), vehicle: saline) 150 % of control; (dose: 18.0 mg/kg/injection, schedule: Q01DX001 (ip), vehicle: saline) 95 % of control; (dose: 30.0 mg/kg/injection, schedule: Q04DX003 (ip), vehicle: saline) 103 % of control and 115 % of control; (dose: 40.0 mg/kg/injection, schedule: Q01DX001 (ip), vehicle: saline) 113 % of control. In addition, the T/C (dose: 80.0 mg/kg/injection, schedule: Q01DX001 (ip), vehicle: saline) was 97 % of control.
For `O=C1c2ccccc2-c2ncccc21`, the T/C by setting is: (dose: 100.0 mg/kg/injection, schedule: Q01DX001 (ip), vehicle: Klucel (hydroxypropylcellulose) (HPC)) 100 % of control; (dose: 200.0 mg/kg/injection, schedule: Q01DX001 (ip), vehicle: Klucel (hydroxypropylcellulose) (HPC)) 120 % of control; (dose: 400.0 mg/kg/injection, schedule: Q01DX001 (ip), vehicle: Klucel (hydroxypropylcellulose) (HPC)) 93 % of control.
